Results published in US20250262198A1, “METHOD FOR TREATING MULTIPLE SCLEROSIS” (BEIJING INNOCARE PHARMA TECH CO., LTD., priority 2022, published 2025).

What was measured:
[1] = test system: MOG35-55-induced EAE mouse model; test: MOG35-55-induced EAE mouse model of multiple sclerosis, oral orelabrutinib; type: in vivo, C57BL/6 mouse
Protocol: Multiple sclerosis (MS) is a chronic neuroinflammatory demyelinating disorder of the central nervous system (CNS). EAE (Experimental Autoimmune Encephalomyelitis) is the most common animal model of human MS as it is especially useful to investigate neuroinflammatory pathways. The synthesized peptide MOG35-55-induced EA E mouse model was used to evaluate the therapeutic potential of orelabrutinib. 100 μL emulsion consisted of 0.75 mg/ml MOG35-55 and 4 mg/mL CFA were injected subcutaneously into two different sites on each hind flank of each C57BL/6 mouse. 300 ng of pertussis toxin in 100 μL of PBS were injected intraperitoneally at the day of immunization and two days later. Mice were randomized into 2 groups as follows: vehicle and orelabrutinib 30 mg/kg/day. Each group had 10 animals. On the day of immunization, animals were dosed QD by PO gavage with either vehicle or test compound for 21 days.

[2] = test system: patients with relapsing-remitting multiple sclerosis (RRMS); test: Randomized, double-blind, placebo-controlled phase 2 study of orelabrutinib in RRMS patients (Core part); type: in vivo, human; conditions: for percent reduction of cumulative number of new Gd+T1 brain lesions relative to placebo: ITT population; for Adjusted mean cumulative number of new Gd+T1 lesions from W 4 to W 24 / Adjusted mean cumulative number of new Gd+T1 lesions at Week 12 / % Reduction of cumulative number of new Gd+T1 lesions from Week 4 to Week 24 vs placebo/50 mg QD switch arm / % Reduction of cumulative number of new Gd+T1 brain lesions vs placebo / Annualized relapse rate (ARR): PHS population; for Adjusted mean cumulative number of new Gd+T1 lesions at Week 12: placebo 4.34
Protocol: This is a randomized, double-blind, placebo-controlled, phase 2 study of orelabrutinib in patients with relapsing-remitting multiple sclerosis (RRMS) that consists of 2 parts: a Core part and an Open-label Extension (OLE) part. The Core part is completed, and the OLE part is on-going.
The completed Core part consisted of a 4-week screening period and 24-week treatment period. Patients with RRMS were randomly assigned to 1 of 4 treatment groups in a 1:1:1:1 ratio: placebo, orelabrutinib 50 mg once daily (QD), orelabrutinib 50 mg twice daily (BID), or orelabrutinib 80 mg QD. At Week 13, patients in the placebo cohort were switched to orelabrutinib 50 mg QD.
Patients with RRMS were randomly assigned to 1 of 4 treatment groups: placebo, orelabrutinib (50 mg, once daily [QD]), orelabrutinib (80 mg QD) and orelabrutinib (50 mg, twice daily [BID]) at a 1:1:1:1 ratio. • Cohort 1: Placebo (Week 1-12)/orelabrutinib 50 mg QD (Week 13-24) • Cohort 2: Orelabrutinib 50 mg QD (Week 1-24) • Cohort 3: Orelabrutinib 80 mg QD (Week 1-24) • Cohort 4: Orelabrutinib 50 mg BID (Week 1-24)
At week 12 of the treatment period, subjects in Cohort 1 were switched to orelabrutinib at a starting daily dose of 50 mg. A separate open-label extension (OLE) study was developed to allow continued dosing, provided that safety and tolerability were acceptable.
Placebo or orelabrutinib was orally administered daily starting on Day 1 of the treatment period. Subjects returned to study site on Day 8 and every 4 weeks starting from Day 1 for trial visits and were assessed for safety and efficacy.
• Intent-to treat (ITT) population. 158 patients randomized: 40 in placebo, 37 in 50 mg QD cohort, 41 in 50 mg BID cohort, and 40 in 80 mg QD cohort. • 3 force majeure events during the study caused missing MRI data at Week 4, 8, or 12 timepoints: Ukraine war & crisis, COVID-19 pandemic outbreak, and FDA's partial clinical hold. • Post-hoc analysis set (PHS) population. 115 patients remaining after excluding patients who missed any one of the 3 MRI data points within first 12 weeks: 27 in placebo, 30 in 50 mg QD, 29 in 50 mg BID, and 29 in 80 mg QD. • 132 patients completed 12 weeks of treatment and 127 patients completed 24 weeks of treatment.
(PHS Population, N=115) The adjusted mean cumulative number, percent reduction (orelabrutinib vs placebo) associated with p-value are estimated from a Poisson regression model with a Pearson scale parameter with a log link function and offset by log number of scans as of Week 12. Baseline number of Gd+T1 brain lesions is included in the model as a continuous covariate.
The adjusted mean cumulative numbers are estimated from Poisson regression models with a Pearson scale parameter with a log link function and offset by log number of scans as of that visit. Baseline number of Gd+T1 brain lesions is included in the model as a continuous covariate.

## C=CC(=O)N1CCC(c2ccc(C(N)=O)c(-c3ccc(Oc4ccccc4)cc3)n2)CC1 [orelabrutinib, 2-(4-phenoxyphenyl)-6-[1-(prop-2-enoyl)piperidin-4-yl]pyridine-3-carboxamide]
[1]; 30 mg/kg/day PO QD, day 15 post-immunization, vehicle 2.0
  average clinical score (EAE): 0.9
[1]; 30 mg/kg/day PO QD, day 21, p<0.05, vehicle 1.5
  average clinical score (EAE): 0.6
[1]; 30 mg/kg/day PO QD, vs vehicle
  body weight loss associated with EAE: reduced weight loss
[1]; 30 mg/kg/day oral
  reduction of EAE score: 50%
[1]; 30 mg/kg/day oral, vs vehicle
  EAE severity: markedly ameliorated EAE severity
[2]; Week 12, 50 mg BID
  percent reduction of cumulative number of new Gd+T1 brain lesions relative to placebo: 78.8%
[2]; Week 12, 50 mg QD
  percent reduction of cumulative number of new Gd+T1 brain lesions relative to placebo: 73.3%
[2]; Week 12, 80 mg QD
  percent reduction of cumulative number of new Gd+T1 brain lesions relative to placebo: 80.5%
[2]; 50 mg BID (N=29)
  Adjusted mean cumulative number of new Gd+T1 lesions from W 4 to W 24: 1.08
  Adjusted mean cumulative number of new Gd+T1 lesions at Week 12: 0.82
[2]; 50 mg BID, P 0.0114
  % Reduction of cumulative number of new Gd+T1 lesions from Week 4 to Week 24 vs placebo/50 mg QD switch arm: 83.3%
[2]; 50 mg QD (N=30)
  Adjusted mean cumulative number of new Gd+T1 lesions from W 4 to W 24: 2.10
  Adjusted mean cumulative number of new Gd+T1 lesions at Week 12: 1.14
[2]; 50 mg QD, P 0.0958
  % Reduction of cumulative number of new Gd+T1 lesions from Week 4 to Week 24 vs placebo/50 mg QD switch arm: 67.4%
[2]; 80 mg QD (N=29)
  Adjusted mean cumulative number of new Gd+T1 lesions from W 4 to W 24: 0.50
  Adjusted mean cumulative number of new Gd+T1 lesions at Week 12: 0.42
[2]; 80 mg QD, P 0.0037
  % Reduction of cumulative number of new Gd+T1 lesions from Week 4 to Week 24 vs placebo/50 mg QD switch arm: 92.3%
[2]; Week 12, 50 mg BID (N=29), P 0.0073
  % Reduction of cumulative number of new Gd+T1 brain lesions vs placebo: 81.0%
[2]; Week 12, 50 mg QD (N=30), P 0.0278
  % Reduction of cumulative number of new Gd+T1 brain lesions vs placebo: 73.8%
[2]; Week 12, 80 mg QD (N=29), P 0.0018
  % Reduction of cumulative number of new Gd+T1 brain lesions vs placebo: 90.4%
[2]; Week 24, 50 mg BID
  Annualized relapse rate (ARR): 0.12
[2]; Week 24, 50 mg QD
  Annualized relapse rate (ARR): 0.05
[2]; Week 24, 80 mg QD
  Annualized relapse rate (ARR): 0.06
[2]; Week 24, placebo/50 mg QD switch arm (placebo Week 1-12, orelabrutinib 50 mg QD Week 13-24)
  Annualized relapse rate (ARR): 0.14
[2]; switch arm: placebo Week 1-12 / orelabrutinib 50 mg QD Week 13-24 (N=27)
  Adjusted mean cumulative number of new Gd+T1 lesions from W 4 to W 24: 6.45
[2]; all orelabrutinib cohorts, Week 12, sustained through Week 24
  Annualized relapse rate (ARR) compared to the placebo group: reduced
[2]; all orelabrutinib cohorts, after 4 weeks of treatment, effect sustained up to 24 weeks
  control of new T1 lesions: Control of new T1 lesions was achieved
